The values that follow come from ChEMBL document CHEMBL5058564, “EUbOPEN Chemogenomics Library 2 (Incucyte)” (2022).

What all share (format): toxicity, cell-based
One series has as its system HEK-293T. In words: Incucyte cell viability with HEK293T. The settings on record: human, 10 µM, compound concentration 10 uM.
Another series concerns Fibroblast. In words: Incucyte cell viability with human fibroblast. Conditions: 10 µM, compound concentration 10 uM.
A further series relates to U2OS. In words: Incucyte cell viability with U2OS. Conditions: human, 10 µM, compound concentration 10 uM.
[1] abbreviates: 0 h, replicate number 1, timepoint 0 hours.
Setting [2] is: 0 h, replicate number 2, timepoint 0 hours.
Where [3] appears, read: 6 h, replicate number 1, timepoint 6 hours.
The mark [4] stands for this setting: 12 h, replicate number 1, timepoint 12 hours.
[5] abbreviates: 12 h, replicate number 2, timepoint 12 hours.
The mark [6] stands for this setting: 18 h, replicate number 1, timepoint 18 hours.
The mark [7] stands for this setting: 18 h, replicate number 2, timepoint 18 hours.
Setting [8] is: 24 h, replicate number 1, timepoint 24 hours.
Where [9] appears, read: 24 h, replicate number 2, timepoint 24 hours.
The mark [10] stands for this setting: 6 h, replicate number 2, timepoint 6 hours.
Further: unitless GR value; below 1 slowed growth and below 0 cell loss.

Take `Cc1cc(C)cc([C@@H]2c3cc(C)ccc3NC(=O)CN2C(=O)c2ccc(Br)s2)c1`: the “Growth Rate” value in the series with HEK-293T (setting [1]) stood at 0.35; with HEK-293T (setting [2]), 0.57; with HEK-293T (setting [3]) it was 0.88; in the series on HEK-293T (setting [4]), 0.65; in the series on HEK-293T (setting [5]), 0.79; with HEK-293T (setting [6]) it was 0.61. Further, the “Growth Rate” value is 0.69 in the series with HEK-293T (setting [7]); 0.46 with HEK-293T (setting [8]); 0.7 in the series on HEK-293T (setting [9]); 0.17 in the series on Fibroblast (setting [1]); 0.74 in the series on Fibroblast (setting [2]); 1 in the series with Fibroblast (setting [8]). The results for the “Growth Rate” value in the series with U2OS (setting [6]), in the series on U2OS (setting [7]) and in the series with U2OS (setting [9]) were 0.98, 0.81 and 0.89, respectively.
`O=C(O)CCC/C=C\C[C@H]1C(=O)C[C@@H](O)[C@@H]1/C=C/[C@@H](O)CCc1ccccc1`: the “Growth Rate” value is recorded as -0.05 with HEK-293T (setting [2]); 0.8 with HEK-293T (setting [3]); 0.68 in the series with HEK-293T (setting [4]); 1 with HEK-293T (setting [6]); 0.89 in the series on HEK-293T (setting [8]); 0.15 in the series with Fibroblast (setting [1]). The “Growth Rate” value is -0.3 with Fibroblast (setting [2]); 0 in the series with Fibroblast (setting [3]); 0.4 with Fibroblast (setting [4]); 0.74 with Fibroblast (setting [6]); 0.66 in the series with Fibroblast (setting [8]); 0.49 in the series with U2OS (setting [1]). For the same compound, the “Growth Rate” value with U2OS (setting [3]) was determined as 0.41; in the series on U2OS (setting [4]) it was 0.52; in the series with U2OS (setting [6]), 0.77; in the series on U2OS (setting [8]) it was 0.97.
Take `COc1ccc(CN(CCN(C)C)c2ccccn2)cc1` [PYRILAMINE]: the “Growth Rate” value turned out to be 0.74 in the series with HEK-293T (setting [10]); 0.94 with HEK-293T (setting [4]); 0.74 with HEK-293T (setting [5]); 0.99 with Fibroblast (setting [2]); 0.36 in the series on Fibroblast (setting [3]); 0.26 in the series with Fibroblast (setting [10]). Further, the “Growth Rate” value with U2OS (setting [1]) turned out to be 0.52; in the series on U2OS (setting [7]), 0.91; in the series with U2OS (setting [8]), 1; in the series on U2OS (setting [9]) it was 0.96.
On to `O=C(NCC(=O)N1CC[C@H](N[C@H]2CC[C@@](O)(c3ccc(-c4ncccn4)cn3)CC2)C1)c1cccc(C(F)(F)F)c1` [PF-4136309], for which the “Growth Rate” value came to 0.66 with HEK-293T (setting [2]); 1 in the series with HEK-293T (setting [3]); 0.86 in the series on HEK-293T (setting [10]); 0.73 in the series with HEK-293T (setting [4]); 0.99 with HEK-293T (setting [8]); 0.71 in the series with Fibroblast (setting [2]). Besides, the “Growth Rate” value with Fibroblast (setting [3]) is on record as 0.01; with Fibroblast (setting [4]) it was 0.15; with Fibroblast (setting [6]) it was 0.3; in the series with Fibroblast (setting [8]), 0.41; with U2OS (setting [1]), 0.62; with U2OS (setting [10]), 0.3. For the same compound, the “Growth Rate” value worked out at 0.53 in the series on U2OS (setting [5]); 1 with U2OS (setting [6]); 0.8 with U2OS (setting [7]); 0.7 in the series with U2OS (setting [8]); 0.9 in the series with U2OS (setting [9]).
`COc1cc(Nc2ncc3c(n2)-c2ccc(Cl)cc2C(c2c(F)cccc2OC)=NC3)ccc1C(=O)O` [ALISERTIB]: the “Growth Rate” value with HEK-293T (setting [3]) was -0.03; in the series on HEK-293T (setting [10]), 0.03; in the series on HEK-293T (setting [4]), 0.13; with HEK-293T (setting [5]), 0; with HEK-293T (setting [6]), 0.39; in the series with HEK-293T (setting [7]), 0.33. Besides, the “Growth Rate” value in the series with HEK-293T (setting [8]) was 0.38; in the series on HEK-293T (setting [9]), 0.26; with Fibroblast (setting [2]), 0.68; with Fibroblast (setting [3]), -0.97; in the series on Fibroblast (setting [10]), -0.09; with Fibroblast (setting [4]), -0.79. Moreover, the “Growth Rate” value with Fibroblast (setting [5]) is on record as -0.17; in the series on Fibroblast (setting [6]), -0.64; with Fibroblast (setting [7]), -0.13; in the series with Fibroblast (setting [8]), -0.39; with Fibroblast (setting [9]), -0.09; in the series with U2OS (setting [1]), -0.14. In addition, the “Growth Rate” value with U2OS (setting [2]) was 0.41; in the series with U2OS (setting [3]), 0.83; in the series on U2OS (setting [4]), 0.43; in the series on U2OS (setting [5]) it was 0.54; with U2OS (setting [6]) it was 0.19; in the series on U2OS (setting [7]), 0.45. The results for the “Growth Rate” value in the series on U2OS (setting [8]) and with U2OS (setting [9]) were 0.39 and 0.65, respectively.
On to `CCCCOCCOc1nc(-c2ccc(C(=O)O)c(F)c2)sc1C`, for which the “Growth Rate” value is given as 0.61 with HEK-293T (setting [1]); 0.25 in the series on HEK-293T (setting [2]); 0.87 in the series with HEK-293T (setting [10]); 0.88 in the series with HEK-293T (setting [5]); 0.94 in the series with HEK-293T (setting [6]); 0.82 with HEK-293T (setting [7]). Besides, the “Growth Rate” value with HEK-293T (setting [8]) was 0.95; with HEK-293T (setting [9]) it was 0.69; in the series with Fibroblast (setting [2]), -0.25; with Fibroblast (setting [3]), 0.05; in the series on Fibroblast (setting [4]) it was 0.16; in the series with Fibroblast (setting [5]) it was 0.63. In addition, the “Growth Rate” value in the series on Fibroblast (setting [6]) is 0.35; with Fibroblast (setting [7]) it was 0.73; in the series on Fibroblast (setting [8]), 0.23; in the series on Fibroblast (setting [9]), 0.7; in the series with U2OS (setting [1]), -0.03; in the series on U2OS (setting [2]) it was -0.3. Besides, the “Growth Rate” value with U2OS (setting [3]) was determined as 0.21; with U2OS (setting [10]), 0.97; in the series on U2OS (setting [4]), 0.49; with U2OS (setting [6]), 0.88; in the series with U2OS (setting [7]) it was 0.86; with U2OS (setting [8]), 0.94. The “Growth Rate” value with U2OS (setting [9]) is 0.84.
For the compound `CCn1c(-c2nc3cc(C(=O)N4CCCC(N)C4)ccc3n2C)cc2ccccc21.Cl` (stereo unspecified), the “Growth Rate” value with HEK-293T (setting [2]) is -1; with HEK-293T (setting [3]) it was 0.72; with HEK-293T (setting [4]), 0.44; with HEK-293T (setting [6]), 0.73; in the series with HEK-293T (setting [8]), 0.83; in the series with Fibroblast (setting [2]), 0.99. In addition, the “Growth Rate” value is -0.75 in the series on Fibroblast (setting [3]); 0.43 in the series on Fibroblast (setting [10]); -0.23 in the series with Fibroblast (setting [4]); 0.52 in the series on Fibroblast (setting [5]); -0.08 with Fibroblast (setting [6]); 0.56 with Fibroblast (setting [7]). For the same compound, the “Growth Rate” value is 0.15 with Fibroblast (setting [8]); 0.6 with Fibroblast (setting [9]); -0.61 in the series with U2OS (setting [1]); 0.71 in the series with U2OS (setting [3]); 0.95 in the series with U2OS (setting [4]).
